Experimental data: ChEMBL document CHEMBL1201862, “PubChem BioAssay data set” (2004)
Activity calls are given as the source filed them. Cut-off read from the data, not from the text of the source: actives have a measured EC50 and inactives only a lower limit.

Target: T1, Heat shock factor protein 1 (Mus musculus, UniProt P38532)
T1 sequence (P38532 whole entry): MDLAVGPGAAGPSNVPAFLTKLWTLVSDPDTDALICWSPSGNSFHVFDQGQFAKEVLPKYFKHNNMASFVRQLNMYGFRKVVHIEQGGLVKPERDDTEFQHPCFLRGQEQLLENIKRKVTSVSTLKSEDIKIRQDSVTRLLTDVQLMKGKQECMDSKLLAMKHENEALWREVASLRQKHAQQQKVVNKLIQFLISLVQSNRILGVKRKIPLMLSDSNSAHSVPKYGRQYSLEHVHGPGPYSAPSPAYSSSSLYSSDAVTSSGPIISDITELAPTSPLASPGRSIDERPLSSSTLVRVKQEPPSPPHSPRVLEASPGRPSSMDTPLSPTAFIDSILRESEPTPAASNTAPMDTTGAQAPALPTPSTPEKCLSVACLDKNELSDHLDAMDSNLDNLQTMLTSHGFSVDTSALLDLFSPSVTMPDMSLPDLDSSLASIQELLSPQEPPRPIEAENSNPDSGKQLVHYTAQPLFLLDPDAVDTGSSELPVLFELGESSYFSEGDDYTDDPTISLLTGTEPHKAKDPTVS
Assay: enhancement of HSF1-driven luciferase signal – cell-based, NIH3T3, luminescence, dose retest, confirmation (AID 435004);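 note: stress induced by proteasome inhibitor MG132 added 30 min after compound; luciferase reporter driven by HSF1 response element in NIH3T3 cells; actives raise luminescence as potentiators of the MG132 stress response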
Type: functional

EC50: > 260 µM (inactive)
SMILES: CCCCNc1cc(NC(C)=O)cc2cc(OC)c(OC)cc12
